In paper PMC12090182, “Repurposing of the RIPK1-Selective Benzo[1,4]oxazepin-4-one Scaffold for the Development of a Type III LIMK1/2 Inhibitor” (ACS Chemical Biology, 2025):

Assays:
Test in all cases: biochemical
Format in all cases: binding
[1] = molecular target: 468 kinases including some pathogenic mutants (Homo sapiens, UniProt O15264); details: p38-delta (Entrez MAPK13), 1000 nM; read-out: Percent Control
[2] = molecular target: 468 kinases including some pathogenic mutants (Homo sapiens, UniProt O96013); details: PAK4 (Entrez PAK4), 100 nM; read-out: Percent Control
[3] = molecular target: 468 kinases including some pathogenic mutants (Homo sapiens, UniProt P00519, Q252H)
[4] = molecular target: 468 kinases including some pathogenic mutants (Homo sapiens, UniProt P07333); details: CSF1R-autoinhibited (Entrez CSF1R), 100 nM; read-out: Percent Control
[5] = molecular target: 468 kinases including some pathogenic mutants (Homo sapiens, UniProt P08581, Y1235D); details: read-out: Percent Control
[6] = molecular target: 468 kinases including some pathogenic mutants (Homo sapiens, UniProt P08631); details: HCK (Entrez HCK), 100 nM; read-out: Percent Control
[7] = molecular target: 468 kinases including some pathogenic mutants (Homo sapiens, UniProt P08922); details: ROS1 (Entrez ROS1), 100 nM; read-out: Percent Control
[8] = molecular target: 468 kinases including some pathogenic mutants (Homo sapiens, UniProt P10721, D816V); details: read-out: Percent Control
[9] = molecular target: 468 kinases including some pathogenic mutants (Homo sapiens, UniProt P19784); details: CSNK2A2 (Entrez CSNK2A2), 100 nM; read-out: Percent Control
[10] = molecular target: 468 kinases including some pathogenic mutants (Homo sapiens, UniProt P21127); details: CDC2L1 (Entrez CDK11B), 100 nM; read-out: Percent Control
[11] = molecular target: 468 kinases including some pathogenic mutants (Homo sapiens, UniProt P33981); details: TTK (Entrez TTK), 100 nM; read-out: Percent Control
[12] = molecular target: 468 kinases including some pathogenic mutants (Homo sapiens, UniProt P42680); details: TEC (Entrez TEC), 1000 nM; read-out: Percent Control
[13] = molecular target: 468 kinases including some pathogenic mutants (Homo sapiens, UniProt P45983); details: JNK1 (Entrez MAPK8), 1000 nM; read-out: Percent Control
[14] = molecular target: 468 kinases including some pathogenic mutants (Homo sapiens, UniProt Q00537); details: PCTK2 (Entrez CDK17), 100 nM; read-out: Percent Control
[15] = molecular target: 468 kinases including some pathogenic mutants (Homo sapiens, UniProt Q05655); details: PRKCD (Entrez PRKCD), 1000 nM; read-out: Percent Control
[16] = molecular target: 468 kinases including some pathogenic mutants (Homo sapiens, UniProt Q15349); details: read-out: Percent Control
[17] = molecular target: 468 kinases including some pathogenic mutants (Homo sapiens, UniProt Q15569); details: TESK1 (Entrez TESK1), 100 nM; read-out: Percent Control
[18] = molecular target: 468 kinases including some pathogenic mutants (Homo sapiens, UniProt Q16513); details: PKN2 (Entrez PKN2), 1000 nM; read-out: Percent Control
[19] = molecular target: 468 kinases including some pathogenic mutants (Homo sapiens, UniProt Q8IVH8); details: MAP4K3 (Entrez MAP4K3), 100 nM; read-out: Percent Control
[20] = molecular target: 468 kinases including some pathogenic mutants (Homo sapiens, UniProt Q8N752); details: CSNK1A1L (Entrez CSNK1A1L), 100 nM; read-out: Percent Control
[21] = molecular target: 468 kinases including some pathogenic mutants (Homo sapiens, UniProt Q96Q40); details: PFTAIRE2 (Entrez CDK15), 100 nM; read-out: Percent Control
[22] = molecular target: 468 kinases including some pathogenic mutants (Homo sapiens, UniProt Q9H2K8); details: TAOK3 (Entrez TAOK3), 100 nM; read-out: Percent Control
[23] = molecular target: 468 kinases including some pathogenic mutants (Homo sapiens, UniProt Q9NQU5); details: PAK6 (Entrez PAK6), 1000 nM; read-out: Percent Control
[24] = molecular target: 468 kinases including some pathogenic mutants (Homo sapiens, UniProt Q9NRM7); details: LATS2 (Entrez LATS2), 100 nM; read-out: Percent Control
[25] = molecular target: 468 kinases including some pathogenic mutants (Homo sapiens, UniProt Q9UHD2); details: TBK1 (Entrez TBK1), 100 nM; read-out: Percent Control
[26] = molecular target: 468 kinases including some pathogenic mutants (Homo sapiens, UniProt Q9UK32); details: read-out: Percent Control
[27] = molecular target: 468 kinases including some pathogenic mutants (Homo sapiens, UniProt Q9UKE5); details: TNIK (Entrez TNIK), 100 nM; read-out: Percent Control
[28] = molecular target: 468 kinases including some pathogenic mutants (Homo sapiens, UniProt Q9UKI8); details: TLK1 (Entrez TLK1), 1000 nM; read-out: Percent Control

Chain of 468 kinases including some pathogenic mutants (Homo sapiens, UniProt Q9UK32) (Q9UK32 whole entry, change not shown): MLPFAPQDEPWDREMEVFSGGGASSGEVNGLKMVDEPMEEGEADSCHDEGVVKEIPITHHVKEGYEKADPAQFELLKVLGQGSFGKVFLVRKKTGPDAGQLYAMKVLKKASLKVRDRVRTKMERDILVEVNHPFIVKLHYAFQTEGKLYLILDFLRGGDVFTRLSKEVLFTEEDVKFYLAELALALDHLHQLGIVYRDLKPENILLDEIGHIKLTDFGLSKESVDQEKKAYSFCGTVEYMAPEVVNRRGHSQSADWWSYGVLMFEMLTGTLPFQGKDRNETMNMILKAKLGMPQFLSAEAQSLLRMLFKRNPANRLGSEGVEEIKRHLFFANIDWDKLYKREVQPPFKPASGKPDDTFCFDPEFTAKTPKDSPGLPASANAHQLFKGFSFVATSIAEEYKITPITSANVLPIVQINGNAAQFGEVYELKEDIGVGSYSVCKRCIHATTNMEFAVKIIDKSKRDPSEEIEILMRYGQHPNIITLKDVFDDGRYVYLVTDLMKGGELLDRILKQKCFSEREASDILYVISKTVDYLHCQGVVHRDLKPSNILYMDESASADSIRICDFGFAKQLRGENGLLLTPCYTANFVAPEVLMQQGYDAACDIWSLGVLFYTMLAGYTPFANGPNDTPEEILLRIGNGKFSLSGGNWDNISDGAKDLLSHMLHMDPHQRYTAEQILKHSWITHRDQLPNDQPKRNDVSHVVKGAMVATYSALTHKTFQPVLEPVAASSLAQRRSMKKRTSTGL
Chain of 468 kinases including some pathogenic mutants (Homo sapiens, UniProt Q15349) (Q15349 whole entry, change not shown): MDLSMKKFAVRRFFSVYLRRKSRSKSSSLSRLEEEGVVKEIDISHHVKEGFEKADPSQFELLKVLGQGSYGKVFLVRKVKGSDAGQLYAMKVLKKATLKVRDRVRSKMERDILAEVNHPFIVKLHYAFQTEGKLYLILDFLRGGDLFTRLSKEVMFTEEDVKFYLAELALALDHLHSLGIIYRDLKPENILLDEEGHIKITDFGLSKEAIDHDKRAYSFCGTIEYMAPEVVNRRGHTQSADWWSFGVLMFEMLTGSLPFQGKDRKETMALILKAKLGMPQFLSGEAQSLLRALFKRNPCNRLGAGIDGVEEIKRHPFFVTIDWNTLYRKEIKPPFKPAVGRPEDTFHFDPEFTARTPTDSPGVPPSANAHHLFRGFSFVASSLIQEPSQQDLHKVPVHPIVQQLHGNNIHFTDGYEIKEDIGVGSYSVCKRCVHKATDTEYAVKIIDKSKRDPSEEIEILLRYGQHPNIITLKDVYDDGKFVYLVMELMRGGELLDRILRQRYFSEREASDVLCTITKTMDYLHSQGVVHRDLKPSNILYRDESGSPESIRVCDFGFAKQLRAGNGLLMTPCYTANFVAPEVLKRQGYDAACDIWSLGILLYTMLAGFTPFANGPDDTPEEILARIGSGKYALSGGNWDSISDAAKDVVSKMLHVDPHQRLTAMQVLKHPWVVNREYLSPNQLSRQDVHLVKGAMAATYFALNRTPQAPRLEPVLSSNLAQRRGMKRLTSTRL
Chain of 468 kinases including some pathogenic mutants (Homo sapiens, UniProt Q8IVH8) (Q8IVH8 whole entry, change not shown): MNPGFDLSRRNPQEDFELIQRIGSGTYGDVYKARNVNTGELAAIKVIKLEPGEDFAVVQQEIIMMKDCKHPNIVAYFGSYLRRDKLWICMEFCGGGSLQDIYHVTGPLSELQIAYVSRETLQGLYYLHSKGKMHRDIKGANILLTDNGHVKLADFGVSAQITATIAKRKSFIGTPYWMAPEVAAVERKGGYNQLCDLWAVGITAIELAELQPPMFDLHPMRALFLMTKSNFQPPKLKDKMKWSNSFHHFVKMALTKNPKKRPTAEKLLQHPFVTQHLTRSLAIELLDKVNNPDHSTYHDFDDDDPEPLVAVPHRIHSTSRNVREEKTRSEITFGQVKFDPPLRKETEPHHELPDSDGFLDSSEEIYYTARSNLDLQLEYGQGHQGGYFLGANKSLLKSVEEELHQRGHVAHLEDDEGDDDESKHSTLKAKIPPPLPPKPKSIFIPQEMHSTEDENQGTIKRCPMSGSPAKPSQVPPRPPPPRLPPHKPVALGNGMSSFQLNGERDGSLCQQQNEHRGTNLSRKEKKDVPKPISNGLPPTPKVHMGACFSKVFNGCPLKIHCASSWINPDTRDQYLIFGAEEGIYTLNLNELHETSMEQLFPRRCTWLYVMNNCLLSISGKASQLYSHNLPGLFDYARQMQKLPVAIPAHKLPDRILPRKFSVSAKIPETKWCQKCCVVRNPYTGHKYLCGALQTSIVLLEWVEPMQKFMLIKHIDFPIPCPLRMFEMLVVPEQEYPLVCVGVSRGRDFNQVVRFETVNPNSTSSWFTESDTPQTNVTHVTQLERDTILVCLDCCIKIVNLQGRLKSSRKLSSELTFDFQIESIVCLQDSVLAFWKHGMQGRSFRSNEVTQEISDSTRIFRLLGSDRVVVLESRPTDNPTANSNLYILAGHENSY
Chain of 468 kinases including some pathogenic mutants (Homo sapiens, UniProt Q96Q40) (Q96Q40 whole entry, change not shown): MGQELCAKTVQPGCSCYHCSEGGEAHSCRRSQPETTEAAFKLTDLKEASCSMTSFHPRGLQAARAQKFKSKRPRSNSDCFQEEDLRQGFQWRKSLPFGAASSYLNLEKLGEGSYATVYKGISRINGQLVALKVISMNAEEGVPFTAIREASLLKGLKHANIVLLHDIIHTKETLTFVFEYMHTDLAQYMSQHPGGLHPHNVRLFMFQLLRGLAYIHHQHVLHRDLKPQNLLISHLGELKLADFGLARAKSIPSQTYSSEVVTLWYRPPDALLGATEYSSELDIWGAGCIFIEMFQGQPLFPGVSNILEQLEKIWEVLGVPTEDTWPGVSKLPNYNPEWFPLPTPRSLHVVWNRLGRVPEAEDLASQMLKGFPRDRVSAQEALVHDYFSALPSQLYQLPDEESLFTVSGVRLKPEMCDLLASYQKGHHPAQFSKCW
Chain of 468 kinases including some pathogenic mutants (Homo sapiens, UniProt Q16513) (Q16513 whole entry, change not shown): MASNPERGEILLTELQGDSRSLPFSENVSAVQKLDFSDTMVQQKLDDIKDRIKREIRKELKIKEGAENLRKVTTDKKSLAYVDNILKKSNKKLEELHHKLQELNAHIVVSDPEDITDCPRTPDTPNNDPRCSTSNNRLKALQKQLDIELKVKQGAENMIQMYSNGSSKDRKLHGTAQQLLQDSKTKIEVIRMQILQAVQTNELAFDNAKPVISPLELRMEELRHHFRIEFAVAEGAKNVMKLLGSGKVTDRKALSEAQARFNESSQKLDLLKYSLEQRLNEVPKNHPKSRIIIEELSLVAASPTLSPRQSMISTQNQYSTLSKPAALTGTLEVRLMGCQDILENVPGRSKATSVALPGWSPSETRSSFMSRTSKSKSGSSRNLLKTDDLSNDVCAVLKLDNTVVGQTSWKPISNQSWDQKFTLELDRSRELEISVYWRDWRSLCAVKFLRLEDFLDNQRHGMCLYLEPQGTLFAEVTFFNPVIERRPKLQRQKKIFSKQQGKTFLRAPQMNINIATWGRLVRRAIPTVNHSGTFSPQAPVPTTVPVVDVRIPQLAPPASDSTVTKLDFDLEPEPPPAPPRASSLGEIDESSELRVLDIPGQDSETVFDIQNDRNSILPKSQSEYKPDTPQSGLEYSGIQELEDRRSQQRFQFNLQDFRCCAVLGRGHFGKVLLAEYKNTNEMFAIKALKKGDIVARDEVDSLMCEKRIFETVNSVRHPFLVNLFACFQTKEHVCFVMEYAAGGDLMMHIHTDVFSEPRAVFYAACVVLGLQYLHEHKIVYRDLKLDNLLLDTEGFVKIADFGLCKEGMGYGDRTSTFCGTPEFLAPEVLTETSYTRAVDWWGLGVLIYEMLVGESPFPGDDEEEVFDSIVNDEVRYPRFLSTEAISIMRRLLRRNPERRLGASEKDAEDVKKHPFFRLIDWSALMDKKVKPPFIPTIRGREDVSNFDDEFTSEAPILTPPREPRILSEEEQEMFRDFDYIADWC
Chain of 468 kinases including some pathogenic mutants (Homo sapiens, UniProt Q9NRM7) (Q9NRM7 whole entry, change not shown): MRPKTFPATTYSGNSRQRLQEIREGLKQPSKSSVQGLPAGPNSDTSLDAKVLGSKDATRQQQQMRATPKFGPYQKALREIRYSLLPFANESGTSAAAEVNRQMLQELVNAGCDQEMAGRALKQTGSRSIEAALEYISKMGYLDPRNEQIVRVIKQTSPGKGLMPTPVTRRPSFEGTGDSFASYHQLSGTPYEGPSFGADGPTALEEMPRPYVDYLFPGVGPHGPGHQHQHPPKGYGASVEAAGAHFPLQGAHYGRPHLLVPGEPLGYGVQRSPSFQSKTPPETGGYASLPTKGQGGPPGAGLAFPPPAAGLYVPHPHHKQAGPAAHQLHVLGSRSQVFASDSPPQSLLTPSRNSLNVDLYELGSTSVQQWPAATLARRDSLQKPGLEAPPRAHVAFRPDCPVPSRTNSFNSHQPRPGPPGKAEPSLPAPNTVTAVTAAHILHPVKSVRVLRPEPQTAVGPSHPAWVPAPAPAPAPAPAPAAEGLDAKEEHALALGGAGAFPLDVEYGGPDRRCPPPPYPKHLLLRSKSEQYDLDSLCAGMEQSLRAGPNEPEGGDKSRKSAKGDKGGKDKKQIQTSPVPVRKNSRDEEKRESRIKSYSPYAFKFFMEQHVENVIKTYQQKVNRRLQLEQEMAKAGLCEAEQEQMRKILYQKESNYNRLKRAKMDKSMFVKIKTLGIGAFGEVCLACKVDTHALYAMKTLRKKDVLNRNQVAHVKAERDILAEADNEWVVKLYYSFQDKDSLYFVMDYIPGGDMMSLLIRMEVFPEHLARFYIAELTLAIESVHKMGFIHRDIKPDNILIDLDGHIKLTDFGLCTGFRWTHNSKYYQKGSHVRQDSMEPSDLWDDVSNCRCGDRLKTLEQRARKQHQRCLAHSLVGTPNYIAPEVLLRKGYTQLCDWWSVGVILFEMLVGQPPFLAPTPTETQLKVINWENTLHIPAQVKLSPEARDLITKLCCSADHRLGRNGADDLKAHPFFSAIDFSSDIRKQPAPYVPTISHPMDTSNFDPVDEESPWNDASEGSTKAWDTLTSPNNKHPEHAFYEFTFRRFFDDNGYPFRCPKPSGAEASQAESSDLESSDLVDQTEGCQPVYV

SMILES: CN1C(=O)[C@@H](N2CCc3c(nn(Cc4ccccc4)c3C(N)=O)C2=O)COc2cc(Cl)ccc21 [Compound 10, (S)-2-benzyl-6-(8-chloro-5-methyl-4-oxo-2,3,4,5-tetrahydrobenzo[b][1,4]oxazepin-3-yl)-7-oxo-4,5,6,7-tetrahydro-2H-pyrazolo[3,4-c]pyridine-3-carboxamide]
- remaining activity at 1 µM [1]: 100%
- remaining activity at 0.1 µM [2]: 100%
- Percent Control ([3]; listed as LIJTF500025): 88%
- remaining activity at 0.1 µM ([3]; read-out: Percent Control): 71%
- remaining activity at 0.1 µM [4]: 80%
- remaining activity at 0.1 µM [5]: 87%
- remaining activity at 0.1 µM [6]: 61%
- remaining activity at 0.1 µM [7]: 78%
- remaining activity at 1 µM [8]: 100%
- remaining activity at 0.1 µM [9]: 74%
- remaining activity at 0.1 µM [10]: 88%
- remaining activity at 0.1 µM [11]: 82%
- remaining activity at 1 µM [12]: 100%
- remaining activity at 1 µM [13]: 100%
- remaining activity at 0.1 µM [14]: 83%
- remaining activity at 1 µM [15]: 100%
- remaining activity at 0.1 µM ([16]; RSK3(Kin.Dom.1-N-terminal) (Entrez RPS6KA2), 100 nM): 100%
- remaining activity at 1 µM ([16]; RSK3(Kin.Dom.2-C-terminal) (Entrez RPS6KA2), 1000 nM): 100%
- remaining activity at 0.1 µM [17]: 79%
- remaining activity at 1 µM [18]: 100%
- remaining activity at 0.1 µM [19]: 83%
- remaining activity at 0.1 µM [20]: 86%
- remaining activity at 0.1 µM [21]: 82%
- remaining activity at 0.1 µM [22]: 71%
- remaining activity at 1 µM [23]: 100%
- remaining activity at 0.1 µM [24]: 68%
- remaining activity at 0.1 µM [25]: 89%
- remaining activity at 1 µM ([26]; RSK4(Kin.Dom.1-N-terminal) (Entrez RPS6KA6), 1000 nM): 100%
- remaining activity at 0.1 µM ([26]; RSK4(Kin.Dom.2-C-terminal) (Entrez RPS6KA6), 100 nM): 90%
- remaining activity at 0.1 µM [27]: 100%
- remaining activity at 1 µM [28]: 100%
